Assay: gradient 5% acetonitrile 3 min, to 50% in 2 min, to 85% in 15 min, held 3 min, 100 µL/min
Conditions: column: Zorbax Extend-C18 2.1 x 50 mm; eluents: water / acetonitrile, 0.1% formic acid
Summary of the method: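 Using water and acetonitrile that each contained 0.1% formic acid, mixtures of ~100 pure standards were separated at 100 μL/min on a Zorbax Extend-C18 column (2.1 × 50 mm, 1.8 μm). The HPLC fed a quadrupole time-of-flight mass spectrometer working in positive and negative ionization mode, with dead and dwell volumes of 40 μL and 900 μL. Data were acquired over 3 months. Retention time was read from computationally picked adduct peaks after manual inspection of each.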
CCCCN1CN=C(Nc2nc(C)c3ccccc3n2)NC1 gave an RP-LC retention time of 680 s.
Cc1ccc(CNC(=O)C2CCCN(c3nc4c(s3)c(C)nn4-c3ccc(C)cc3)C2)cc1 (stereo not given) gave an RP-LC retention time of 1210 s.
For COC(=O)c1ccc(N2C=C(C#N)S(=O)(=O)c3ccc(F)cc32)cc1, the RP-LC retention time was 875 s.
Cc1ccc(NC(=O)C2(C)CCCCC(=O)N2)cc1 (stereo not given) showed an RP-LC retention time of 696 s.
In the case of CCOC(=O)c1nc(NC(C)c2ccccc2)c2ccccc2n1 (stereo not given), the RP-LC retention time is reported as 794 s.
Work on Cc1nnc(NC(=O)CN2CC(c3nc(C4CC4)no3)C2)s1 yielded an RP-LC retention time of 537 s.
For O=C(c1ccc(F)cc1)N1CCN(c2ccc(N3CCCC3)nn2)CC1, the RP-LC retention time was 604 s.
With CC(NC(=O)C1CCN(Cc2cn(C)c3ccccc23)CC1)c1ccc(F)cc1 (stereo not given) the RP-LC retention time was 699 s.
O=C(Cc1ccsc1)N1CCC2(CC1)N=C(c1cccc(Br)c1)NO2 gave an RP-LC retention time of 889 s.
Work on O=C(NCc1ccc(F)cc1)Nc1cnc2c(c1)CCC2 yielded an RP-LC retention time of 531 s.
Work on CCN1CCN(c2ncc3c(n2)CCN(Cc2cccc(C)c2)C3)CC1 yielded an RP-LC retention time of 529 s.
For Cc1ccc(CNC(=O)c2cc3sccc3n2Cc2ccc(Cl)cc2)cc1, the RP-LC retention time was 1200 s.
CCc1ccc(C2=C(C)C(N3CCC(C(=O)NCCN4CCCC4)CC3)=NS2(=O)=O)cc1 showed an RP-LC retention time of 671 s.
C[C@H]1CN(C(=O)c2c(F)cccc2F)C[C@@H]1c1nc(-c2ccccc2)no1 showed an RP-LC retention time of 1020 s.
CCc1nccn1Cc1noc(-c2ccccc2C)n1 showed an RP-LC retention time of 649 s.
For Cc1ccc(C(=O)NCc2nc(-c3ccc4c(c3)ncn4C)no2)cc1, the RP-LC retention time was 634 s.
For CC(NC(=O)c1cc(-c2ccc(F)cc2)cn1C)c1ccccn1 (stereo not given), the RP-LC retention time was 722 s.
Work on COCCN1CCn2cc(S(=O)(=O)Nc3ccc(Cl)cc3F)cc2C1=O yielded an RP-LC retention time of 734 s.
With COCCC1CCN(C(=O)c2nn(C)c3ccccc23)CC1 the RP-LC retention time was 771 s.
Cc1nc(Cn2cccc2C(=O)Nc2cc(Cl)ccc2C)no1 showed an RP-LC retention time of 915 s.
Compound COc1ccc(-c2ncc3c(n2)CCN(S(=O)(=O)c2cccs2)C3)cc1 has an RP-LC retention time of 997 s.
CCOc1ccc(CNC(=O)C2CCN(S(=O)(=O)c3cn(CC)cn3)CC2)cc1 gave an RP-LC retention time of 696 s.
CC(C)Cn1c(=O)c(C(=O)NCCCN2CCCCC2)nc2cccnc21 showed an RP-LC retention time of 642 s.
Cc1cc(Cl)ccc1NC(=O)C1CCCN1S(=O)(=O)c1cc2c(cc1C)NC(=O)CO2 (stereo not given) showed an RP-LC retention time of 832 s.
With COC(=O)c1ccccc1NC(=O)CN1CCC(c2nc(-c3cccc(F)c3)no2)CC1 the RP-LC retention time was 738 s.
With COCCn1c(CC2CCN(C(=O)Cc3ccsc3)C2)nc2cccnc21 (stereo not given) the RP-LC retention time was 599 s.
Work on COc1ccc(NC(=O)C(C)n2cnc3nc4c(cc3c2=O)CCCC4)cc1OC (stereo not given) yielded an RP-LC retention time of 685 s.
COc1ccc2c(c1)C1(CCN(S(=O)(=O)c3ccc(F)c(C)c3)C1)C(=O)N2 (stereo not given) showed an RP-LC retention time of 874 s.
With CC(NC(=O)Cn1cc(C(=O)C(=O)N2CCCC2)c2ccccc21)c1ccc2c(c1)OCCCO2 (stereo not given) the RP-LC retention time was 815 s.
For CCn1cc(-c2nc(CC(=O)NCc3ccc4c(c3)OCO4)cs2)c2cccnc21, the RP-LC retention time was 835 s.
In the case of O=C(CN1C(=O)c2cccc3cccc(c23)C1=O)NCC1CCCO1 (stereo not given), the RP-LC retention time is reported as 651 s.
CC(C)c1nc2cccnc2n1CCN1CCN(C(=O)Nc2ccc(Br)cc2F)CC1 showed an RP-LC retention time of 632 s.
With CCCN1CCC[C@H](c2cccc(O)c2)C1 the RP-LC retention time was 588 s.
Work on Cc1ccc2nc(-c3cc(Br)ccc3F)c(Nc3ccccc3C)n2c1 yielded an RP-LC retention time of 793 s.
Compound CCN1c2cc(Cl)ccc2C(=O)NC12CCN(C(=O)Nc1cc(C)ccc1OC)CC2 has an RP-LC retention time of 916 s.
CC(C)C[C@@H](C(=O)N[C@H](C(=O)OC1CCCC1)c1ccccc1)[C@H](O)C(=O)NO showed an RP-LC retention time of 822 s.
In the case of CN(C)c1ccc(C(=O)Nc2cc(-c3cccnc3)no2)cc1, the RP-LC retention time is reported as 738 s.
For COC(=O)C1=CN(c2cccc(F)c2)c2cc(Br)ccc2S1(=O)=O, the RP-LC retention time was 928 s.
With COC(=O)c1cnc2nc(C)ccc2c1NCc1cccc(Cl)c1 the RP-LC retention time was 733 s.
With CCN1C(=O)c2ccccc2Oc2ccc(C(=O)NCCc3ccc(OC)c(OC)c3)cc21 the RP-LC retention time was 864 s.
For COc1ccc(NC(=O)c2c(C)oc3nc(C)nc(N4CCCC4)c23)cc1, the RP-LC retention time was 704 s.
Compound Cn1nc(C(=O)N2CCCC(C(=O)N3CCCC3)C2)c2c1CCN(C(=O)c1c(F)cccc1F)C2 (stereo not given) has an RP-LC retention time of 686 s.
Compound Cc1ccc(-c2cc3c(=O)n(Cc4nc(-c5cccc(Br)c5)no4)ncn3n2)c(C)c1 has an RP-LC retention time of 1320 s.
O=C(NCc1ccco1)C1CCN(c2nnc(-c3ccccc3)o2)CC1 showed an RP-LC retention time of 718 s.
Compound COc1ccc(CNC(=O)C2(C)CCN(C(=O)Nc3ccc(F)c(Cl)c3)CC2)cc1 has an RP-LC retention time of 872 s.
For COC(=O)c1c(NCC(C)C)c2cc(F)ccc2[nH]c1=O, the RP-LC retention time was 734 s.
Cc1onc(-c2ccccc2)c1C(=O)Nc1nc(-c2ccc(F)cc2)cs1 gave an RP-LC retention time of 1090 s.
For CCOC(=O)c1sc(NC(=O)c2ccccc2F)nc1-c1ccccc1, the RP-LC retention time was 1100 s.
Work on CCn1c(=O)sc2cc(S(=O)(=O)N3CCC(C(=O)Nc4ccc5c(c4)OCO5)CC3)ccc21 yielded an RP-LC retention time of 863 s.
O=c1c2scc(-c3cccc(F)c3)c2ncn1Cc1cccc(Br)c1 showed an RP-LC retention time of 1180 s.
For Cn1ncc(N2CCCC(C(=O)Nc3ccc4c(c3)CCC4)C2)cc1=O (stereo not given), the RP-LC retention time was 786 s.
NC(=O)c1ccc2c(c1)CCCN2C(=O)c1cccc(Cl)c1 showed an RP-LC retention time of 724 s.
OC1(c2ccc(Cl)cc2)CCN(Cc2c[nH]c3ccccc23)CC1 gave an RP-LC retention time of 736 s.
With CC(Oc1ccccc1)C(=O)NCCCn1cccc1 (stereo not given) the RP-LC retention time was 783 s.
COc1ccc(-c2ncc3c(n2)CCN(C(=O)Nc2ccc(C)cc2Cl)C3)cc1 showed an RP-LC retention time of 1020 s.
Compound Cc1ccc2c(Nc3ccc4c(c3)OCCO4)c(C(=O)N3CCCC3)cnc2n1 has an RP-LC retention time of 592 s.
With CCOC(=O)C1C(=O)C(=O)N(C(C)C)C1C(=O)OCC (stereo not given) the RP-LC retention time was 782 s.
With CNC(=O)[C@H]1O[C@@H](n2cnc3c(NCc4cccc(I)c4)ncnc32)C(O)C1O (stereo not given in full) the RP-LC retention time was 721 s.
Cc1ccc(CNC(=O)c2ccc(-c3ccsc3)nc2)o1 showed an RP-LC retention time of 824 s.
Compound Cc1cc(C)c(S(=O)(=O)N2CCCC(C(=O)Nc3ccccc3F)C2)c(C)c1 (stereo not given) has an RP-LC retention time of 1090 s.
With CN(Cc1ccccc1)C(=O)Cn1c(=O)c2cnc(-c3ccc(Cl)cc3)nc2n(C)c1=O the RP-LC retention time was 1120 s.
Work on O=C([C@@H]1C[C@H](Oc2ccccc2)CN1C(=O)c1ccsc1)N1CCCC1 yielded an RP-LC retention time of 756 s.
In the case of Cc1cc(-c2nnc(C3CCC3)o2)c(C)n1CC(=O)NCc1ccc(F)cc1Cl, the RP-LC retention time is reported as 899 s.
COCCc1noc(C2CN(S(=O)(=O)c3ccc(C#N)cc3)C2)n1 gave an RP-LC retention time of 768 s.
CCc1ccc(-c2ccc(-n3nc(C)c(S(=O)(=O)N4CCC(C)CC4)c3C)nn2)cc1 showed an RP-LC retention time of 1350 s.
Cc1nc2cc(N3CCCC(C(=O)Nc4ccc5c(c4)OCO5)C3)cnc2nc1C (stereo not given) showed an RP-LC retention time of 695 s.
For COc1ccc(CCc2nc3nccc(-c4cccnc4)n3n2)cc1, the RP-LC retention time was 720 s.
In the case of CC1CCCCN1CCNC(=O)c1c2c(cn(-c3ccc(F)cc3)c1=O)C(=O)CC(C)(C)C2 (stereo not given), the RP-LC retention time is reported as 675 s.
Work on COc1ccc(NC(=O)c2cc(C)n3nc(-c4ccco4)cc3n2)c(OC)c1 yielded an RP-LC retention time of 1100 s.
Compound CCC1CN2C=NC(N3CCN(C(=O)c4ccoc4)CC3)=CC2=N1 (stereo not given) has an RP-LC retention time of 575 s.
Compound COCC1CN(C(=O)c2ccc3cc[nH]c3c2)CC12CCOCC2 (stereo not given) has an RP-LC retention time of 680 s.
Compound CCOC(=O)C1CCN(c2ncccc2-c2nnc(-c3ccccc3)o2)CC1 has an RP-LC retention time of 1010 s.
In the case of COc1ccc(CN2CC3(CCN(S(=O)(=O)Cc4ccccc4)CC3)C2=O)cc1, the RP-LC retention time is reported as 882 s.
For COC(=O)c1ccsc1NC(=O)Cc1ccc2c(c1)OCO2, the RP-LC retention time was 888 s.
In the case of O=C(Nc1nc(-c2ccc(Cl)cc2)cs1)c1ccc(COc2ccccc2Cl)o1, the RP-LC retention time is reported as 1310 s.
With CCOc1ccc(CC(=O)N2CCN(c3cc(CC)n4cnnc4n3)CC2)cc1 the RP-LC retention time was 634 s.
Work on Cc1nc(-c2ccncc2)nc2c1CCC(=O)N2CC1COCCO1 (stereo not given) yielded an RP-LC retention time of 591 s.
Cc1cc(C(=O)NCCc2ccc(Cl)cc2)c2c(=O)n(C)c(=O)n(C)c2n1 gave an RP-LC retention time of 835 s.
With O=C(Nc1ccccc1)NC1CCCN(c2cc(-c3ccncc3)[nH]n2)C1 (stereo not given) the RP-LC retention time was 602 s.
Work on COc1cccc(CNC(=O)NCCc2nc3cccnc3n2Cc2ccccc2)c1 yielded an RP-LC retention time of 723 s.
In the case of CCn1c(C)c(CCC(=O)Nc2ccccc2)c(=O)n2nc(-c3ccccc3)nc12, the RP-LC retention time is reported as 847 s.
Compound CCOc1ccc2nc(C(=O)NC(C)C)cn2n1 has an RP-LC retention time of 731 s.
Work on O=S(=O)(C1CC1)N1CCC(c2nc(-c3ccncc3)no2)C1 (stereo not given) yielded an RP-LC retention time of 670 s.
For COc1ccc(CNC(=O)C2CCCN(c3ccc(=O)n(-c4cccc(Cl)c4)n3)C2)cc1OC (stereo not given), the RP-LC retention time was 798 s.
In the case of CCc1ccc(NC(=O)N2CCC(n3cnc4cc(F)ccc4c3=O)CC2)cc1, the RP-LC retention time is reported as 867 s.
Compound COCCOCc1nc(C2CCCN2S(=O)(=O)Cc2ccccc2)no1 (stereo not given) has an RP-LC retention time of 748 s.
COc1ccc(-c2nc(Nc3ccccn3)sc2C)cc1 gave an RP-LC retention time of 807 s.
CN(C)C(=O)c1cnn(-c2cccc(F)c2)c1-n1cccc1 showed an RP-LC retention time of 806 s.
With CCCC(NC(=O)c1ccccc1)C(=O)Nc1nc2ccccc2[nH]1 (stereo not given) the RP-LC retention time was 688 s.
In the case of CCn1c(SCC(=O)Nc2nc(-c3ccccc3)cs2)nnc1-c1cc2ccccc2o1, the RP-LC retention time is reported as 1070 s.

Reference: the METLIN SMRT retention time set (Domingo-Almenara et al. 2019)
